# Experimental data: patent US20040086901A1, “Database for analyzing gene function and method of analyzing gene function by dspa” (priority 2000, published 2004)
# Non-standard residues stand in square brackets, D forms with d. Residues, ends and D or L forms follow the SMILES beside them. Nle = CCCC[C@H](N)C(=O)O
# Experiments:
# Format in all cases: cell-based, mouse
# [1] = test system: NIH3T3 cells overexpressing Bax; assay: MTT cell viability, Bax overexpressing cells vs parental line; settings: 3 to 4 days
# Outline: (§1)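 NIH3T3 high expressers vs parental; 2-fold serial dilution of drugs (DMSO stocks), 9 points; 10% CS-DMEM; 3–4 d culture; MTT 4 h 37 °C, stop with 0.04N HCl/isopropanol; A574/655. Readout is log(IC40 ratio).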
# [2] = test system: NIH3T3 cells overexpressing caspase-2; assay: MTT cell viability, caspase-2 overexpressing cells vs parental line; settings: caspase-2 high-expressing cells / parental cell line, 3 to 4 days
# Outline: (§2)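 Stable NIH3T3 transfectants (cDNA in pRc-CMV-type vector, G-418-selected, high expressers picked by Western blot) and parental cells were seeded at 1×10^5 cells/ml into twofold serial drug dilutions and grown 3–4 days. MTT formazan was read at 574/655 nm, and log ratios of IC40 values were derived.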
# [3] = test system: NIH3T3 cells overexpressing p33/ING1; assay: MTT cell viability, p33/ING1 overexpressing cells vs parental line; settings: p33/ING1 high-expressing cells / parental cell line, 3 to 4 days
# Outline: as §2
# [4] = test system: NIH3T3 cells overexpressing Cip-1; assay: MTT cell viability, Cip-1 overexpressing cells vs parental line; settings: Cip-1 high-expressing cells / parental cell line, 3 to 4 days
# Procedure: With regard to the function-known genes, the genes shown in the left column of Table 2 were used. With regard to the drugs, those shown in Table 1 were dissolved in DMSO to an extent of 100-fold of the maximum concentration for the search of the drugs and used. With regard to the cells, incubated NIH3T3 or ras-NIH3T3 cells were used.
# Full-length cDNA of each function-known genes was incorporated into an expression vector (pRc-CMV, etc.) and transfected into NIH3T3 cells by a common method. Transformed cells were isolated using the resistance to G-418 as an index and the expression of the transfected gene in each cell was investigated by Western blotting method to select a highly expressing line.
# Cell viabilities were measured according to the following procedures.
# 1) From the 2nd to the 11th rows of a 96-well plate were filled with DMEM (50 μl). The 12th row was filled with 100 μl of DMEM.
# 2) The 1st row was filled with 98 μl of DMEM.
# 3) Drugs (2 μl each) were added into the 1st row.
# 4) Continuous double-dilution was conducted from the 1st to the 9th rows. Fifty μl were taken out from the 9th row and discarded. The plate was preserved in a CO2 incubator.
# 5) Cells (each high-expressing cells and the parental cell line) were detached from the medium using a trypsin solution, suspended in 10% CS-DMEM and transferred to a test tube and cell numbers (cell/ml) were counted.
# 6) The cells were diluted to a concentration of 1×10^5 cells/ml, and 50 μl of the cell suspension were added to the 1st to the 11th rows of the plate followed by gently stirring.
# 7) The plate was transferred to the CO2 incubator and incubated for 3 to 4 days.
# 8) MTT (5 mg/ml in PBS) (10 μl) was added to the 1st to the 12th rows of the plate and incubated in the CO2 incubator at 37° C. for 4 hours.
# 9) A reaction stop solution (0.04N HCl in isopropanol) (150 μl) was added followed by mixing well and being allowed to stand at room temperature for about 2 hours.
# 10) Coloration of formazan which was a metabolite of the MTT dye was measured using a microplate reader. The measurement wavelength was 574 nm and the reference wavelength was 655 nm. The 10th and the 11th rows of the plate were 100% controls and the 12th row was a 0% control.
# As an index for the sensitivity of highly gene-expressing cells and the parental cell line to various drugs, each of the IC40 values thereof was specified and ratios of the IC40 values were calculated. […] After that, logarithmic values of ratios of IC40 values were calculated from each gene.
# [5] = test system: NIH3T3 cells overexpressing coup; assay: MTT cell viability, coup overexpressing cells vs parental line; settings: coup high-expressing cells / parental cell line, 3 to 4 days
# Outline: as §2
# [6] = test system: NIH3T3 cells overexpressing PDGF-R; assay: MTT cell viability, PDGF-R overexpressing cells vs parental line; settings: PDGF-R high-expressing cells / parental cell line, 3 to 4 days
# Outline: as §2
# [7] = test system: NIH3T3 cells overexpressing HNF4; assay: MTT cell viability, HNF4 overexpressing cells vs parental line; settings: HNF4 high-expressing cells / parental cell line, 3 to 4 days
# Outline: as §1
# [8] = test system: NIH3T3 cells overexpressing PKCepsilon-KN; assay: MTT cell viability, PKCepsilon-KN overexpressing cells vs parental line; settings: 3 to 4 days
# Outline: as §1
# [9] = test system: NIH3T3 cells overexpressing TK; assay: MTT cell viability, TK overexpressing cells vs parental line; settings: TK high-expressing cells / parental cell line, 3 to 4 days
# Outline: as §2
# [10] = test system: NIH3T3 cells overexpressing cystatin alpha; assay: MTT cell viability, cystatin alpha overexpressing cells vs parental line; settings: cystatin alpha high-expressing cells / parental cell line, 3 to 4 days
# Outline: as §2
# [11] = test system: NIH3T3 cells overexpressing CaMKIIa; assay: MTT cell viability, CaMKIIa overexpressing cells vs parental line; settings: CaMKIIa high-expressing cells / parental cell line, 3 to 4 days
# Outline: as §1
# [12] = test system: NIH3T3 cells overexpressing erbB2; assay: MTT cell viability, erbB2 overexpressing cells vs parental line; settings: erbB2 high-expressing cells / parental cell line, 3 to 4 days
# Outline: as §2
# [13] = test system: NIH3T3 cells overexpressing RhoA; assay: MTT cell viability, RhoA overexpressing cells vs parental line; settings: RhoA high-expressing cells / parental cell line, 3 to 4 days
# Outline: as §2
# [14] = test system: NIH3T3 cells overexpressing Regucalcin; assay: MTT cell viability, Regucalcin overexpressing cells vs parental line; settings: Regucalcin high-expressing cells / parental cell line, 3 to 4 days
# Outline: as §2
# [15] = test system: NIH3T3 cells overexpressing caspase-1; assay: MTT cell viability, caspase-1 overexpressing cells vs parental line; settings: caspase-1 high-expressing cells / parental cell line, 3 to 4 days
# Outline: as §1
# [16] = test system: NIH3T3 cells overexpressing cAMP-PK-CS; assay: MTT cell viability, cAMP-PK-CS overexpressing cells vs parental line; settings: cAMP-PK-CS high-expressing cells / parental cell line, 3 to 4 days
# Outline: as §1
# [17] = test system: NIH3T3 cells overexpressing v-src; assay: MTT cell viability, v-src overexpressing cells vs parental line; settings: v-src high-expressing cells / parental cell line, 3 to 4 days
# Outline: as §2
# [18] = test system: NIH3T3 cells overexpressing T.Tn; assay: MTT cell viability, T.Tn overexpressing cells vs parental line; settings: T.Tn high-expressing cells / parental cell line, 3 to 4 days
# Outline: as §1
# [19] = test system: NIH3T3 cells overexpressing p53(wt); assay: MTT cell viability, p53(wt) overexpressing cells vs parental line; settings: p53(wt) high-expressing cells / parental cell line, 3 to 4 days
# Outline: as §1
# [20] = Bax (first of two Bax lines) high-expressing cells / parental cell line
# [21] = Bax (second of two Bax lines) high-expressing cells / parental cell line
# [22] = PKCepsilon-KN (first of two lines) high-expressing cells / parental cell line
# [23] = PKCepsilon-KN (second of two lines) high-expressing cells / parental cell line
Compound,"logarithmic value of ratio of IC40 values [1, 20]","logarithmic value of ratio of IC40 values [1, 21]",logarithmic value of ratio of IC40 values [2],logarithmic value of ratio of IC40 values [3],logarithmic value of ratio of IC40 values [4],logarithmic value of ratio of IC40 values [5],logarithmic value of ratio of IC40 values [6],logarithmic value of ratio of IC40 values [7],"logarithmic value of ratio of IC40 values [8, 22]","logarithmic value of ratio of IC40 values [8, 23]",logarithmic value of ratio of IC40 values [9],logarithmic value of ratio of IC40 values [10],logarithmic value of ratio of IC40 values [11],logarithmic value of ratio of IC40 values [12],logarithmic value of ratio of IC40 values [13],logarithmic value of ratio of IC40 values [14],logarithmic value of ratio of IC40 values [15],logarithmic value of ratio of IC40 values [16],logarithmic value of ratio of IC40 values [17],logarithmic value of ratio of IC40 values [18],also measured
"C=C1[C@@H](O)[C@@H]2O[C@]3(CC[C@H](/C=C/[C@@H](C)[C@@H]4CC(C)=C[C@@]5(O[C@H](C[C@@](C)(O)C(=O)O)CC[C@H]5O)O4)O3)CC[C@H]2O[C@@H]1[C@@H](O)C[C@H](C)[C@H]1O[C@@]2(CCCCO2)CC[C@H]1C [OA, okadaic acid]",0.00,0.00,0.06,0.11,−0.15,0.00,0.16,0.08,0.00,0.00,0.00,0.08,0.00,−0.19,0.00,−0.10,0.00,0.08,0.18,−0.16,logarithmic value of ratio of IC40 values [19]: −0.05
sodium vanadate,0.00,0.32,0.40,−0.30,0.00,−0.10,0.22,−0.03,0.09,0.18,0.16,0.08,−0.13,−0.40,0.28,0.00,−0.11,0.00,0.00,0.46,logarithmic value of ratio of IC40 values [19]: 0.00
CCCC[C@@H](C=O)NC(=O)[C@H](CC(C)C)NC(=O)[C@H](CC(C)C)NC(C)=O [ALLN] (Ac-Leu-Leu-[Nle]-aldehyde),−0.10,0.11,−0.04,0.08,0.18,0.06,0.22,−0.15,0.07,0.19,0.00,0.07,0.00,−0.05,0.00,0.00,−0.04,0.20,0.10,0.48,logarithmic value of ratio of IC40 values [19]: 0.18
"C[C@@H]1C[C@@H]([C@H](O)CC2CC(=O)NC(=O)C2)C(=O)[C@@H](C)C1 [CHX, cycloheximide]",−0.08,0.00,0.74,−0.30,1.77,0.12,0.51,0.22,0.06,0.20,−0.13,0.34,0.04,−0.64,0.14,0.08,−0.05,0.23,−0.32,0.00,logarithmic value of ratio of IC40 values [19]: 0.85
"C/C=C(/C)C(=O)O[C@H]1C(C)=C2[C@H]([C@@H]1OC(=O)CCCCCCC)[C@@](C)(OC(C)=O)C[C@H](OC(=O)CCC)[C@@]1(O)[C@H]2OC(=O)[C@@]1(C)O [Thapsigargin, thapsigargin]",−0.21,0.20,−0.07,0.49,0.04,−0.30,0.29,0.00,0.09,0.20,0.06,0.04,0.09,0.11,0.26,0.20,−0.30,0.05,0.32,0.32,logarithmic value of ratio of IC40 values [19]: −0.05
